From patent publication US20250228239A1, “MOLECULES HAVING PESTICIDAL UTILITY, AND INTERMEDIATES, COMPOSITIONS, AND PROCESSES, RELATED THERETO” (priority 2024, published 2025)
Where two headings read alike, the source gives them in different places.

Assays:
Assay type in all cases: in vivo
[1] = system: Beet Armyworm (Spodoptera exigua, LAPHEG); experiment: Bioassays on Beet Armyworm (BAW), 128-well diet tray assay; conditions: for pest or weed control at 50 µg/cm2: Spodoptera exigua
How it was run: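 One to five second-instar larvae per well on artificial diet surface-treated with 50 μg/cm^2 test molecule (applied in 90:10 acetone-water, dried), eight wells per compound. Trays held vented at 25° C., 14:10 light-dark for five to seven days; percent mortality averaged over the eight wells.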

[2] = system: Cabbage Looper (Trichoplusia ni, TRIPNI); experiment: Bioassays on Cabbage Looper (CL), 128-well diet tray assay; conditions: for pest or weed control at 50 µg/cm2: Trichoplusia ni
How it was run: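 Percent mortality, averaged across eight replicate wells, after second-instar larvae (1–5 per well) fed for five to seven days on diet dosed at 50 μg/cm^2. Compound was applied in acetone-water 90:10 and dried; trays kept vented at 25° C under 14:10 photoperiod.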

[3] = system: Green Peach Aphid (Myzus persicae, MYZUPE); experiment: Bioassays on Green Peach Aphid (GPA), foliar spray on cabbage seedlings; conditions: 72 h
How it was run: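 Percent control (Abbott-corrected versus solvent-sprayed plants) comes from live-aphid counts three days after treatment at about 25° C. Test solution at 200 ppm was sprayed to runoff onto both leaf surfaces of cabbage seedlings infested a day earlier with 20-50 aphids; four replicate pots.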

[4] = system: Yellow Fever Mosquito (Aedes aegypti, AEDSAE); conditions: for YFM rating: Yellow Fever Mosquito, Table ABC / ABC-DP rating; for YFM: Table ABC: Biological Results, species YFM
How it was run: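 Compounds from 4000 ppm DMSO stocks were diluted in 90:10 water/acetone and dispensed into wells, then infested with about 1-day-old larvae in liver-powder water. Covered plates were held at room temperature for 3 days and each well was scored for mortality against a rating scale; six replicate plates per compound.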

[5] = Beet Armyworm, Table ABC / ABC-DP rating, read-out: BAW rating
[6] = Cabbage Looper, Table ABC / ABC-DP rating, read-out: CL rating
[7] = Green Peach Aphid, Table ABC / ABC-DP rating, read-out: GPA rating
[8] = Table ABC: Biological Results, species BAW, read-out: BAW
[9] = Table ABC: Biological Results, species CL, read-out: CL
[10] = Table ABC: Biological Results, species GPA, read-out: GPA

| SMILES | pest or weed control at 50 µg/cm2 [1, 5] | pest or weed control at 50 µg/cm2 [2, 6] | pest or weed control at 200 µg/mL [3, 7] | YFM rating [4] | BAW rating ([1]; Beet Armyworm, Table ABC / ABC-DP rating) | CL rating ([2]; Cabbage Looper, Table ABC / ABC-DP rating) | pest or weed control at 50 µg/cm2 [1, 8] | pest or weed control at 50 µg/cm2 [2, 9] | pest or weed control at 200 µg/mL [3, 10] | YFM [4] |
| --- | --- | --- | --- | --- | --- | --- | --- | --- | --- | --- |
| O=C(CCCNC(=O)c1cc(NC(=O)[C@H]2[C@H](c3cc(Cl)cc(Cl)c3)C2(Cl)Cl)ccc1Cl)NCC(F)(F)F (relative stereo) [F2080, trans-2-Chloro-5-(2,2-dichloro-3-(3,5-dichlorophenyl)cyclopropane-1-carboxamido)-N-(4-oxo-4-(2,2,2-trifluoroethylamino)butyl)benzamide] | 50 to 100% | 50 to 100% | 0 to 80% | B (More than 0 – Less than 80) |  |  |  |  |  |  |
| O=C(CNC(=O)c1cc(NC(=O)[C@H]2[C@H](c3cc(Cl)cc(Cl)c3)C2(Cl)Cl)ccc1Cl)NCCC(F)(F)F (relative stereo) [F2081, trans-2-Chloro-5-(2,2-dichloro-3-(3,5-dichlorophenyl)cyclopropane-1-carboxamido)-N-(2-oxo-2-(3,3,3-trifluoropropylamino)ethyl)benzamide] | 50 to 100% | 50 to 100% | 80 to 100% | A (80–100) |  |  |  |  |  |  |
| O=C(NCCNC(=O)C(F)(F)F)c1cc(NC(=O)[C@H]2[C@H](c3cc(Cl)cc(Cl)c3)C2(Cl)Cl)ccc1Cl (relative stereo) [F2082, trans-2-Chloro-5-(2,2-dichloro-3-(3,5-dichlorophenyl)cyclopropane-1-carboxamido)-N-(2-(2,2,2-trifluoroacetamido)ethyl)benzamide] |  |  | 80 to 100% | B (More than 0 – Less than 80) | A (50–100) | A (50–100) |  |  |  |  |
| Nc1ccc(F)c(NC(=O)c2cc(NC(=O)[C@H]3[C@H](c4cc(Cl)cc(Cl)c4)C3(Cl)Cl)ccc2Cl)c1F [F1227, N-(3-Amino-2,6-difluorophenyl)-2-chloro-5-((1R,3R)-2,2-dichloro-3-(3,5-dichlorophenyl)cyclopropane-1-carboxamido)benzamide] |  |  |  |  |  |  | 50 to 100% | 50 to 100% | 0 to 80% | A (80–100) |
| Nc1ccc(F)c(NC(=O)c2cc(NC(=O)[C@H]3[C@H](c4cc(Cl)c(Cl)c(Cl)c4)C3(Cl)Cl)ccc2Cl)c1F [F1228, N-(3-Amino-2,6-difluorophenyl)-2-chloro-5-((1R,3R)-2,2-dichloro-3-(3,4,5-trichlorophenyl)cyclopropane-1-carboxamido)benzamide] |  |  |  |  |  |  | 50 to 100% | 50 to 100% | 0 to 80% | A (80–100) |
| O=C(Nc1c(F)ccc(NC(=O)C(F)F)c1F)c1cc(NC(=O)[C@H]2[C@H](c3ccc(F)c(Cl)c3)C2(Cl)Cl)ccc1Cl [F1234, 2-Chloro-5-((1R,3R)-2,2-dichloro-3-(3-chloro-4-fluorophenyl)cyclopropane-1-carboxamido)-N-(3-(2,2-difluoroacetamido)-2,6-difluorophenyl)benzamide] |  |  |  |  |  |  | 50 to 100% | 50 to 100% | 80 to 100% | A (80–100) |
| O=C(Nc1c(F)ccc(NC(=O)C(F)F)c1F)c1cc(NC(=O)[C@H]2[C@H](c3cc(Cl)c(Cl)c(Cl)c3)C2(Cl)Cl)ccc1Cl [F1238, 2-Chloro-5-((1R,3R)-2,2-dichloro-3-(3,4,5-trichlorophenyl)cyclopropane-1-carboxamido)-N-(3-(2,2-difluoroacetamido)-2,6-difluorophenyl)benzamide] |  |  |  |  |  |  | 50 to 100% | 50 to 100% | 0 to 80% | A (80–100) |
| O=C(Nc1c(F)ccc(NC(=O)C(F)F)c1F)c1cc(NC(=O)[C@H]2[C@H](c3ccc(Cl)c(Cl)c3)C2(Cl)Cl)ccc1Cl [F1240, 2-Chloro-5-((1R,3R)-2,2-dichloro-3-(3,4-dichlorophenyl)cyclopropane-1-carboxamido)-N-(3-(2,2-difluoroacetamido)-2,6-difluorophenyl)benzamide] |  |  |  |  |  |  | 50 to 100% | 50 to 100% | 0 to 80% | A (80–100) |
| O=C(Nc1c(F)ccc(NC(=O)C(F)F)c1F)c1cc(NC(=O)[C@H]2[C@H](c3cc(Cl)cc(Cl)c3)C2(Cl)Cl)ccc1Cl [F1241, 2-Chloro-5-((1R,3R)-2,2-dichloro-3-(3,5-dichlorophenyl)cyclopropane-1-carboxamido)-N-(3-(2,2-difluoroacetamido)-2,6-difluorophenyl)benzamide] |  |  |  |  |  |  | 50 to 100% | 50 to 100% | 80 to 100% | A (80–100) |
| O=C(Nc1cc(NC(=O)C(F)F)c(F)cc1F)c1cc(NC(=O)[C@H]2[C@H](c3ccc(Cl)c(Cl)c3)C2(Cl)Cl)ccc1Cl [F1242, 2-Chloro-5-((1R,3R)-2,2-dichloro-3-(3,4-dichlorophenyl)cyclopropane-1-carboxamido)-N-(5-(2,2-difluoroacetamido)-2,4-difluorophenyl)benzamide] |  |  |  |  |  |  | 50 to 100% | 50 to 100% | 0 to 80% | A (80–100) |
| O=C(Nc1cc(NC(=O)C(F)(F)Cl)c(F)cc1F)c1cc(NC(=O)[C@H]2[C@H](c3ccc(Cl)c(Cl)c3)C2(Cl)Cl)ccc1Cl [F1243, 2-Chloro-N-(5-(2-chloro-2,2-difluoroacetamido)-2,4-difluorophenyl)-5-((1R,3R)-2,2-dichloro-3-(3,4-dichlorophenyl)cyclopropane-1-carboxamido)benzamide] |  |  |  |  |  |  | 50 to 100% | 50 to 100% | 0 to 80% | A (80–100) |
| O=C(Nc1cc(NC(=O)C(F)(F)F)c(F)cc1F)c1cc(NC(=O)[C@H]2[C@H](c3ccc(Cl)c(Cl)c3)C2(Cl)Cl)ccc1Cl [F1245, 2-Chloro-5-((1R,3R)-2,2-dichloro-3-(3,4-dichlorophenyl)cyclopropane-1-carboxamido)-N-(2,4-difluoro-5-(2,2,2-trifluoroacetamido)phenyl)benzamide] |  |  |  |  |  |  | 50 to 100% | 50 to 100% | 0 to 80% | A (80–100) |
| CC(=O)Nc1cc(NC(=O)c2cc(NC(=O)[C@H]3[C@H](c4ccc(Cl)c(Cl)c4)C3(Cl)Cl)ccc2Cl)c(F)cc1F [F1246, N-(5-Acetamido-2,4-difluorophenyl)-2-Chloro-5-((1R,3R)-2,2-dichloro-3-(3,4-dichlorophenyl)cyclopropane-1-carboxamido)benzamide] |  |  |  |  |  |  | 50 to 100% | 50 to 100% | 80 to 100% | A (80–100) |
| Nc1ccc(F)c(NC(=O)c2cc(NC(=O)[C@H]3[C@H](c4ccc(F)c(Cl)c4)C3(Cl)Cl)ccc2Cl)c1F [F1247, N-(3-Amino-2,6-difluorophenyl)-2-chloro-5-((1R,3R)-2,2-dichloro-3-(3-chloro-4-fluorophenyl)cyclopropane-1-carboxamido)benzamide] |  |  |  |  |  |  | 50 to 100% | 50 to 100% | 80 to 100% | A (80–100) |
